Like-named read-outs stand apart in the source and are kept apart here.
Assays:
[1] = system: tubulin; test: inhibition of radiolabeled colchicine binding to tubulin (ICB); parameters: species or system bovine; settings: evaluated only when polymerization IC50 ≤ 1.0 μM; inhibitor equimolar with [3H]colchicine, 5-fold molar excess over tubulin
Protocol: Studies conducted in support of the present invention indicate that one mode of action of the 2-phenyl-4-quinolone compounds, as antitumor agents, is an ability to bind to tubulin and inhibit cell mitosis. […] […].
[…]. […] […].
Electrophoretically homogeneous bovine brain tubulin was purified as described previously (Hamel, et al., 1984). Combretastatin A-4 was a generous gift of Dr. G. R. Pettit, Arizona State University. Dihydrocombretastatin A-4 was prepared as described previously (Getahun et al., 1992). […]

[2] = system: SK-Mel-5; test: NCI in vitro tumor cell screen, SK-Mel-5 melanoma; assay type: cell-based; settings: Homo sapiens
Protocol: (§1) Selected 2-phenyl-4-quinolones were assayed using an in vitro, disease-oriented antitumor screen run by the National Cancer Institute (NCI) (e.g., Boyd 1989). The screen involved approximately 60 different cell lines and is a useful indicator of in vivo antitumor activity for a broad variety of tumor types (Grever et al., 1992; Monks et al., 1991). The cell lines tested included cells derived from the following solid tumor types: leukemia, non-small cell lung, colon, the central nervous system (CNS), melanoma, ovarian, renal, prostate, and breast cancers.
(§2) melonoma; SF268 and SF295, CNS tumor cell lines; DU145, prostate cancer

[3] = system: OVCAR-4; test: NCI in vitro tumor cell screen, OVCAR-4 ovarian cancer; assay type: cell-based; settings: Homo sapiens
Protocol: as §1

[4] = system: SF-268; test: NCI in vitro tumor cell screen, SF-268 CNS tumor; assay type: cell-based; settings: Homo sapiens
Protocol: as §1, §2

[5] = system: RXF-393; test: NCI in vitro tumor cell screen, RXF-393 renal cancer; assay type: cell-based; settings: Homo sapiens
Protocol: as §1

[6] = system: KM202L; test: NCI in vitro tumor cell screen, KM20L2 colon cancer; assay type: cell-based; settings: Homo sapiens, KM-20L2
Protocol: as §1

[7] = system: tubulin; test: inhibition of tubulin polymerization (ITP); assay type: biochemical, bovine
Protocol: Electrophoretically homogeneous bovine brain tubulin was purified as described previously (Hamel, et al., 1984). […] Dihydrocombretastatin A-4 was prepared as described previously (Getahun et al., 1992).
The tubulin polymerization assay was performed as described previously (Li et al., 1994). In brief, tubulin at 1.2 mg/mL ([…]) was preincubated for 15 min at 26° C. in a 0.24 mL volume in 0.8M monosodium glutamate (pH 6.6 with NaOH in a 2M stock solution) with varying drug concentrations. The drug stock solutions were in dimethyl sulfoxide, and the final solvent concentration was 4% (v/v). […] All concentrations are in terms of the final reaction volume (0.25 mL). The reaction mixtures were chilled on ice, and […] of 10 mM GTP was added to each reaction mixture. Samples were transferred to cuvettes held at 0° C. by an electronic temperature controller in Gilford spectrophotometers. Baselines were established at 350 nm, and polymerization initiated by a temperature jump to 26° C. The jump took about 50 sec to complete. After 20 min, turbidity readings were recorded, and the temperature controller was set to 0° C. When depolymerization was complete, turbidity readings were again recorded. […] IC50 values were obtained graphically from inhibition of polymerization by different drug concentrations. Four spectrophotometers were used for each experimental sequence, with at least two control reactions (no drug) in each set.

[8] = system: HCT116; test: NCI in vitro tumor cell screen, HCT116 colon cancer; assay type: cell-based; settings: Homo sapiens, HCT-116
Protocol: as §1

[9] = system: approximately 60 different cell lines; test: NCI in vitro disease-oriented human tumor cell screen, all cell lines; assay type: cell-based; settings: for GI50: Homo sapiens
Excerpt: The cell lines tested included cells derived from the following solid tumor types: leukemia, non-small cell lung, colon, the central nervous system (CNS), melanoma, ovarian, renal, prostate, and breast cancers.

[10] = system: SF-295; test: NCI in vitro tumor cell screen, SF-295 CNS tumor; assay type: cell-based
Protocol: as §1, §2

[11] = system: NCI-H226; test: NCI in vitro tumor cell screen, NCI-H226 non-small cell lung cancer; assay type: cell-based; settings: Homo sapiens
Protocol: as §1

[12] = system: K-562; test: NCI in vitro tumor cell screen, K-562 leukemia; assay type: cell-based; settings: Homo sapiens, K562
Protocol: as §1

[13] = system: OVCAR-3; test: NCI in vitro tumor cell screen, OVCAR-3 ovarian cancer; assay type: cell-based; settings: Homo sapiens
Protocol: as §1

[14] = system: DU-145; test: NCI in vitro tumor cell screen, DU-145 prostate cancer; assay type: cell-based; settings: Homo sapiens
Protocol: as §1, §2

[15] = system: MDA-N; test: NCI in vitro tumor cell screen, MDA-N breast cancer; assay type: cell-based; settings: Homo sapiens
Protocol: as §1

[16] = SF-268, CNS tumor, read-out: logGI50 (converted)
[17] = ± SD, tubulin 1.2 mg/mL, 26° C., 20 min, read-out: ITP IC50 (inhibition of tubulin polymerization)
[18] = calculated from all cell lines tested (Table II), read-out: average logGI50 (converted)
[19] = Homo sapiens, SF-295; read-out: logGI50 (converted)
[20] = average over cell lines, read-out: average log GI50 (converted)
[21] = values given in mM, read-out: IC50, inhibition of tubulin polymerization

| Compound | ICB (% inhibition of colchicine binding) [1] | IC50 [7, 17] | GI50 [2] | GI50 [4, 16] | GI50 [6] | GI50 [8] | GI50 [9, 18] | GI50 [10, 19] | GI50 [12] | further results |
| --- | --- | --- | --- | --- | --- | --- | --- | --- | --- | --- |
| COc1ccc(/C=C\c2cc(OC)c(OC)c(OC)c2)cc1O [combretastatin A-4, reference compound] | 94 ± 2% |  |  |  |  |  |  |  |  |  |
| Nc1cccc(-c2cc(=O)c3cc4c(cc3[nH]2)OCO4)c1 [compound 10, 3'-Amino-6,7-methylenedioxy-2-phenyl-4-quinolone] | 16 ± 7% | 0.00073 ± 0.0002 mM | 933 nM | 759 nM | 708 nM | 479 nM | 1620 nM | 2400 nM | 891 nM | GI50 [3]: 38900 nM; GI50 [5]: 603 nM; GI50 [11]: 2190 nM |
| CNc1cccc(-c2cc(=O)c3cc4c(cc3[nH]2)OCO4)c1 [compound 11, 3'-N-Methylamino-6,7-methylenedioxy-2-phenyl-4-quinolone] | 17 ± 11% | 0.00065 ± 0.0001 mM | 447 nM | 5500 nM | 331 nM | 245 nM | 513 nM | 324 nM | 398 nM | GI50 [5]: 363 nM; GI50 [11]: 537 nM; GI50 [13]: 339 nM |
| O=c1cc(-c2cccc(O)c2)[nH]c2cc3c(cc12)OCO3 [compound 12, 3'-Hydroxy-6,7-methylenedioxy-2-phenyl-4-quinolone] | 26 ± 3% | 0.00047 ± 0.0001 mM | 1480 nM | 2290 nM | 3310 nM | 1820 nM | 3090 nM | 5500 nM | 724 nM | GI50 [9, 20]: 3160 nM |
| O=c1cc(-c2cccc(F)c2)[nH]c2cc3c(cc12)OCO3 [compound 13, 3'-Fluoro-6,7-methylenedioxy-2-phenyl-4-quinolone] | 51 ± 3% | 0.00053 ± 0.0001 mM | 269 nM | 661 nM |  | 219 nM | 339 nM | 141 nM | 339 nM | GI50 [11]: 955 nM; GI50 [13]: 288 nM |
| O=c1cc(-c2cccc(Cl)c2)[nH]c2cc3c(cc12)OCO3 [compound 14, 3'-Chloro-6,7-methylenedioxy-2-phenyl-4-quinolone] | 45 ± 7% | 0.00037 ± 3e-05 mM | 209 nM |  | 269 nM |  | 501 nM |  |  | GI50 [3]: > 75900 nM |
| O=c1cc(-c2cccc(Br)c2)[nH]c2cc3c(cc12)OCO3 [compound 15, 3'-Bromo-6,7-methylenedioxy-2-phenyl-4-quinolone] | 26 ± 3% | 0.00053 ± 0.0001 mM | 4370 nM | 3020 nM | 3090 nM | 3390 nM | 3310 nM | 331 nM | 3470 nM | GI50 [3]: > 100000 nM; GI50 [5]: 2400 nM; GI50 [9, 20]: 3160 nM; GI50 [11]: 3800 nM; GI50 [13]: 4270 nM |
| O=c1cc(-c2cccc(C(F)(F)F)c2)[nH]c2cc3c(cc12)OCO3 [compound 16, 3'-Trifluoromethyl-6,7-methylenedioxy-2-phenyl-4-quinolone] | 5 ± 7% | 0.00082 ± 0.0002 mM |  |  | 1380 nM |  | 2750 nM |  |  |  |
| Nc1ccc2[nH]c(-c3cccc(Cl)c3)cc(=O)c2c1 [compound 20, 3'-Chloro-6-amino-2-phenyl-4-quinolone] |  | 0.0061 ± 0.001 mM |  |  | 3160 nM |  | 5500 nM |  |  | GI50 [3]: > 100000 nM; activity in tubulin polymerization assay, in words [7]: moderately active |
| Nc1ccc2[nH]c(-c3cccc(C(F)(F)F)c3)cc(=O)c2c1 [compound 21, 3'-Trifluoromethyl-6-amino-2-phenyl-4-quinolone] |  | > 0.04 mM |  |  | 34700 nM |  | 39800 nM |  |  | activity in tubulin polymerization assay, in words [7]: inactive; IC50 [7, 21]: > 0.04 mM |
| CC(=O)Nc1ccc2[nH]c(-c3cccc(F)c3)cc(=O)c2c1 [compound 25, 3'-Fluoro-6-acetamido-2-phenyl-4-quinolone] |  |  |  |  |  |  |  |  |  | GI50 ([4]; SF-268, read-out: logGI50 (converted)): 25700 nM; GI50 ([10]; Homo sapiens, SF-295, read-out: logGI50 (converted)): 38900 nM |
| COc1ccc(CCc2cc(OC)c(OC)c(OC)c2)cc1O [dihydrocombretastatin A-4, reference compound] | 65 ± 4% | 0.00063 ± 3e-05 mM |  |  |  |  |  |  |  |  |
| COc1cc([C@@H]2c3cc4c(cc3[C@H](O)[C@H]3COC(=O)[C@H]23)OCO4)cc(OC)c1OC [podophyllotoxin, reference compound] | 84 ± 2% |  |  |  |  |  |  |  |  |  |

Now from value to molecule, other results behind:

| ICB (% inhibition of colchicine binding) [1] | IC50 [7, 17] | Compound | GI50 [2] | GI50 [4, 16] | GI50 [6] | GI50 [8] | GI50 [9, 18] | GI50 [10, 19] | GI50 [12] | further results |
| --- | --- | --- | --- | --- | --- | --- | --- | --- | --- | --- |
|  | 0.0087 ± 0.003 mM | COc1cccc(-c2cc(=O)c3cc(N)ccc3[nH]2)c1 [compound 22, 3'-Methoxy-6-amino-2-phenyl-4-quinolone] |  |  | 3470 nM |  | 4570 nM |  |  | activity in tubulin polymerization assay, in words [7]: moderately active |
| 58 ± 5% | 0.00072 ± 0.0002 mM | O=c1cc(-c2cccc(OC(F)(F)F)c2)[nH]c2ccc(N3CCCC3)cc12 [compound 29, 3'-Trifluoromethoxy-6-pyrrolinyl-2-phenyl-4-quinolone] |  |  |  |  |  |  |  |  |
| 53 ± 6% | 0.00078 ± 0.0002 mM | COc1cccc(-c2cc(=O)c3cc(N4CCCCC4)ccc3[nH]2)c1 [compound 30, 3'-Methoxy-6-piperidinyl-2-phenyl-4-quinolone] |  |  |  |  |  |  |  |  |
| 43 ± 10% | 0.00036 ± 0.0001 mM | COc1cccc(-c2cc(O)c3cc(N4CCOCC4)ccc3n2)c1 [compound 31, 3'-Methoxy-6-morpholinyl-2-phenyl-4-quinolone] | 35.5 nM | 53.7 nM | 33.9 nM | 26.9 nM | 56.2 nM | 49 nM | 24.5 nM | GI50 [3]: 6310 nM; GI50 [14]: 43.7 nM; GI50 [15]: 8.32 nM; antitumor activity / cytotoxicity, in words [9]: highly potent, with an antitumor activity comparable to that of compound 23; GI50 [11]: 33.9 nM; GI50 [13]: 20 nM |
|  | 0.014 ± 0.002 mM | COc1cccc(-c2cc(=O)c3cc(N4CCN(C)CC4)ccc3[nH]2)c1 [compound 32, 3'-Methoxy-6-methylpiperazinyl-2-phenyl-4-quinolone] | 912 nM | 1860 nM | 1510 nM | 437 nM | 1550 nM | 1820 nM | 537 nM | GI50 [3]: > 10000 nM; GI50 [5]: 457 nM; GI50 [14]: 2510 nM; IC50 [7, 21]: 0.014 mM; GI50 [15]: 200 nM; GI50 [11]: 1510 nM |
|  | 0.0013 ± 7e-05 mM | COc1cccc(-c2cc(=O)c3cc(NC(=O)c4ccccc4)ccc3[nH]2)c1 [compound 33, 3'-Methoxy-6'-benzamido-2-phenyl-4-quinolone] |  |  |  |  |  |  |  |  |
| 26 ± 10% | 0.00063 ± 0.0002 mM | O=c1cc(-c2ccccc2)[nH]c2cc3c(cc12)OCO3 [compound 34] |  |  |  |  |  |  |  |  |
| 39 ± 8% | 0.00057 ± 0.0001 mM | COc1cccc(-c2cc(=O)c3cc4c(cc3[nH]2)OCO4)c1 [compound 35] |  |  |  |  |  |  |  |  |
| 29 ± 7% | 0.0007 ± 3e-05 mM | CN(C)c1cccc(-c2cc(=O)c3cc4c(cc3[nH]2)OCO4)c1 [compound 36] |  |  |  |  |  |  |  |  |

Reference: US5571822A, “Antitumor compounds” (The University of North Carolina at Chapel Hill, priority 1994, dated 1996)
